Results: PubChem BioAssay AID1963838 (Molecular Pharmacology Branch, DTP, NCI, 2024)

Tested on: 855422-203-R-J1-PDC complex spheroid viability
Test: Anticancer human tumor 855422-203-R-J1-PDC patient-derived bladder carcinoma cell line growth inhibition [POLQ]
Conditions: for IC50: curve of first compound; for viability, T/C: stronger effect = lower value
Outline: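 Growth inhibition in 3D: complex spheroids (tumor PDC, HUVEC, MSC) treated with POLQ inhibitor combinations; where Cmax unknown, highest tested concentration 10 microM, except SN-38 at 1 microM.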

[1] = second compound 0.0316 µM, first compound 0.0316 µM
[2] = second compound 0.0316 µM, first compound 0.1 µM
[3] = second compound 0.0316 µM, first compound 0.316 µM
[4] = second compound 0.0316 µM, first compound 1 µM
[5] = second compound 0.0316 µM, first compound 3.16 µM
[6] = second compound 0.0316 µM, first compound 10 µM
[7] = second compound 0.1 µM, first compound 0.0316 µM
[8] = second compound 0.1 µM, first compound 0.1 µM
[9] = second compound 0.1 µM, first compound 0.316 µM
[10] = second compound 0.1 µM, first compound 1 µM
[11] = second compound 0.1 µM, first compound 3.16 µM
[12] = second compound 0.1 µM, first compound 10 µM
[13] = second compound 0.316 µM, first compound 0.0316 µM
[14] = second compound 0.316 µM, first compound 0.1 µM
[15] = second compound 0.316 µM, first compound 0.316 µM
[16] = second compound 0.316 µM, first compound 1 µM
[17] = second compound 0.316 µM, first compound 3.16 µM
[18] = second compound 0.316 µM, first compound 10 µM
[19] = second compound 1 µM, first compound 0.0316 µM
[20] = second compound 1 µM, first compound 0.1 µM
[21] = second compound 1 µM, first compound 0.316 µM
[22] = second compound 1 µM, first compound 1 µM
[23] = second compound 1 µM, first compound 3.16 µM
[24] = second compound 1 µM, first compound 10 µM
[25] = second compound 3.16 µM, first compound 0.0316 µM
[26] = second compound 3.16 µM, first compound 0.1 µM
[27] = second compound 3.16 µM, first compound 0.316 µM
[28] = second compound 3.16 µM, first compound 1 µM
[29] = second compound 3.16 µM, first compound 3.16 µM
[30] = second compound 3.16 µM, first compound 10 µM
[31] = second compound 10 µM, first compound 0.0316 µM
[32] = second compound 10 µM, first compound 0.1 µM
[33] = second compound 10 µM, first compound 0.316 µM
[34] = second compound 10 µM, first compound 1 µM
[35] = second compound 10 µM, first compound 3.16 µM
[36] = second compound 10 µM, first compound 10 µM
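Note: spheroids exposed to compounds for seven days before readout.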

## CC1COCCN1c1cc(C2(O)CC3CCC(C2)O3)c2cnn(-c3ccn[nH]3)c2n1 (stereo unspecified) + COC1C(OC(N)=O)C(O)C(Oc2ccc3c(O)c(NC(=O)c4ccc(O)c(CC=C(C)C)c4)c(=O)oc3c2C)OC1(C)C
Second compound 0.0316 µM
  IC50: 0.113 µM
Second compound 0.1 µM
  IC50: 0.0844 µM
Second compound 0.316 µM
  IC50: 0.106 µM
Second compound 1 µM
  IC50: 0.107 µM
Second compound 3.16 µM
  IC50: 0.0967 µM
Second compound 10 µM
  IC50: 0.0878 µM
[1]
  viability, T/C: 94.3%
[2]
  viability, T/C: 54.2%
[3]
  viability, T/C: 14.5%
[4]
  viability, T/C: 8.78%
[5]
  viability, T/C: 6.63%
[6]
  viability, T/C: 3.87%
[7]
  viability, T/C: 84.8%
[8]
  viability, T/C: 44.1%
[9]
  viability, T/C: 13.4%
[10]
  viability, T/C: 9.17%
[11]
  viability, T/C: 6.55%
[12]
  viability, T/C: 4.3%
[13]
  viability, T/C: 99.6%
[14]
  viability, T/C: 52%
[15]
  viability, T/C: 18.9%
[16]
  viability, T/C: 10.2%
[17]
  viability, T/C: 8.4%
[18]
  viability, T/C: 3.49%
[19]
  viability, T/C: 109%
[20]
  viability, T/C: 52.2%
[21]
  viability, T/C: 12.7%
[22]
  viability, T/C: 8.94%
[23]
  viability, T/C: 7.59%
[24]
  viability, T/C: 4.06%
[25]
  viability, T/C: 112%
[26]
  viability, T/C: 48.2%
[27]
  viability, T/C: 14.7%
[28]
  viability, T/C: 8.35%
[29]
  viability, T/C: 7.58%
[30]
  viability, T/C: 3.81%
[31]
  viability, T/C: 112%
[32]
  viability, T/C: 42%
[33]
  viability, T/C: 15.8%
[34]
  viability, T/C: 8.17%
[35]
  viability, T/C: 7.6%
[36]
  viability, T/C: 4.01%

## O=C(Nc1ccc(O)c(NS(=O)(=O)c2ccc(F)cc2)c1)c1ccc(-c2ccccc2)cc1 + COC1C(OC(N)=O)C(O)C(Oc2ccc3c(O)c(NC(=O)c4ccc(O)c(CC=C(C)C)c4)c(=O)oc3c2C)OC1(C)C
Second compound 0.0316 µM
  IC50: 8.24 µM
Second compound 0.1 µM
  IC50: 8.44 µM
Second compound 0.316 µM
  IC50: 8.45 µM
Second compound 1 µM
  IC50: 8.14 µM
Second compound 3.16 µM
  IC50: 7.83 µM
Second compound 10 µM
  IC50: 7.63 µM
[1]
  viability, T/C: 101%
[2]
  viability, T/C: 101%
[3]
  viability, T/C: 119%
[4]
  viability, T/C: 116%
[5]
  viability, T/C: 106%
[6]
  viability, T/C: 38.7%
[7]
  viability, T/C: 109%
[8]
  viability, T/C: 105%
[9]
  viability, T/C: 110%
[10]
  viability, T/C: 98.2%
[11]
  viability, T/C: 103%
[12]
  viability, T/C: 40.8%
[13]
  viability, T/C: 105%
[14]
  viability, T/C: 110%
[15]
  viability, T/C: 113%
[16]
  viability, T/C: 110%
[17]
  viability, T/C: 106%
[18]
  viability, T/C: 40.4%
[19]
  viability, T/C: 106%
[20]
  viability, T/C: 111%
[21]
  viability, T/C: 111%
[22]
  viability, T/C: 113%
[23]
  viability, T/C: 98.8%
[24]
  viability, T/C: 39%
[25]
  viability, T/C: 109%
[26]
  viability, T/C: 122%
[27]
  viability, T/C: 112%
[28]
  viability, T/C: 111%
[29]
  viability, T/C: 94.2%
[30]
  viability, T/C: 37.9%
[31]
  viability, T/C: 107%
[32]
  viability, T/C: 104%
[33]
  viability, T/C: 108%
[34]
  viability, T/C: 102%
[35]
  viability, T/C: 101%
[36]
  viability, T/C: 34.6%

## CC1COCCN1c1cc(C2(S(C)(=N)=O)CC2)nc(-c2ccnc3[nH]ccc23)n1 (stereo unspecified) + Nc1ccc(C#CCN(C(=O)Cc2ncc(C(F)(F)F)cc2C(F)(F)F)c2ccc(F)cc2)nn1
Second compound 0.0316 µM
  IC50: 5.25 µM
Second compound 0.1 µM
  IC50: 3.92 µM
Second compound 0.316 µM
  IC50: 3.05 µM
Second compound 1 µM
  IC50: 3.4 µM
Second compound 3.16 µM
  IC50: 2.89 µM
Second compound 10 µM
  IC50: 2.53 µM
[1]
  viability, T/C: 104%
[2]
  viability, T/C: 98.9%
[3]
  viability, T/C: 132%
[4]
  viability, T/C: 98.2%
[5]
  viability, T/C: 78.2%
[6]
  viability, T/C: 14.9%
[7]
  viability, T/C: 111%
[8]
  viability, T/C: 124%
[9]
  viability, T/C: 99.8%
[10]
  viability, T/C: 187%
[11]
  viability, T/C: 57.6%
[12]
  viability, T/C: 16.6%
[13]
  viability, T/C: 95.4%
[14]
  viability, T/C: 111%
[15]
  viability, T/C: 102%
[16]
  viability, T/C: 180%
[17]
  viability, T/C: 47.8%
[18]
  viability, T/C: 13.9%
[19]
  viability, T/C: 93.3%
[20]
  viability, T/C: 108%
[21]
  viability, T/C: 116%
[22]
  viability, T/C: 144%
[23]
  viability, T/C: 52.4%
[24]
  viability, T/C: 14.1%
[25]
  viability, T/C: 111%
[26]
  viability, T/C: 91.7%
[27]
  viability, T/C: 119%
[28]
  viability, T/C: 189%
[29]
  viability, T/C: 43.2%
[30]
  viability, T/C: 11.3%
[31]
  viability, T/C: 97.7%
[32]
  viability, T/C: 96.1%
[33]
  viability, T/C: 113%
[34]
  viability, T/C: 152%
[35]
  viability, T/C: 34.3%
[36]
  viability, T/C: 11.3%
